Test [1] concerns the target T1, mushroom tyrosinase (Agaricus bisporus, UniProt C7FF04).
T1 construct: purchased Sigma T-3824
In words: Tyrosinase inhibition test (in vitro acellular depigmenting activity). The test is classed as biochemical. To be noted: for Tyrosinase depigmenting activity result: class symbol, assay from 250 to 150 μM, overall tyrosinase activity (MPMOg), L-tyrosine substrate. The source says:
A) Determination of the Depigmenting Activity in an in vitro Acellular Test: Tyrosinase Inhibition Test)
This test is used to evaluate the depigmenting activity of the molecules tested. Tyrosinase is a limiting enzyme in melanogenesis.
It belongs to the family of oxydoreductases. It has in particular the function: monophenol monooxygenase (MPMO) and polyphenol oxidase (PPO).
It is synthesised at the level of the melanocytes. It is activated during its migration towards melanosome […]. It transforms tyrosine into DOPA then dopaquinone, which leads in fine to a polymerisation, i.e. a production of pigments (see diagram below).
The substrate: L-tyrosine, is transformed into L-DOPA by the monophenol mono oxygenase function which is transformed by the polyphenol oxidase function from tyrosinase into dopaquinone. The latter is going to self-oxidise into dopachrome which is measured by spectrophotometry at 490 nm.
More precisely, it is the overall tyrosinase activity (MPMOg) which is measured since it is the dopachrome in fine that is assayed. Thus the products tested on MPMOg (=measurement of the activity on PPO and MPMO) can cumulate the inhibition of the 2 functions, • inhibiting uniquely the MPMO function stricto sensus (transformation of tyrosine into DOPA) as a complement to the PPO test, • could inhibit PPO uniquely. General Experimental Conditions:

Another test has as its system B16-F10 cells. In words: Melanin assay test in B16-F10 cells. The test is classed as cell-based, murine. To be noted: Mus musculus, read-out: B16 activity results -% at X μM. The method, then:
B) Melanin Assay Test in B16-F10 Cells:
This involves a test of measuring the synthesis of melanin by colorimetric assay on a murine melanoma cell line: the B16-F10 line. This test makes it possible to evaluate the depigmenting power of active ingredients.
The B16-F10 cells are cultured in 96-well plates in DMEM medium supplemented with FCS (foetal calf serum), and incubated for 24 hours at 37° C., 5% CO2. The cells are then stimulated with 0.1 μM α-MSH (to stimulate the synthesis of melanin, the stimulation observed is around 150%) and treated for 72 hours with the active ingredients to be tested. Each concentration of active ingredient is tested at least in triplicate. The total melanin followed by the intracellular melanin dissolved in the lysis buffer are then assayed by absorbance reading at 405 nm. The total proteins are assayed in the lysate and the results are expressed in mg melanin/mg proteins. The percentage of activity is calculated as follows: […]
A negative value indicates an inhibition, whereas a positive value indicates an induction of the synthesis of melanin.
• B16-F10 cell line between P10 and P20 (murine melanocytes) (ATCC, CRL-6475)
Reagents: • DMEM without phenol red (GibcoBRL, 31053-028), 200 mM Glutamax-I Supplement (GibcoBRL, 35050-038), D-PBS (GibcoBRL, 14190-094), Foetal calf serum (Invitrogen, 10270-098), Trypsine-EDTA (GibcoBRL, 25300-054), NaOH (Sigma, S8045-500G), DMSO (Sigma, 471267-1L), Nle, Phe—Melanocyte Stimulating Hormone (Sigma, M-8764), Melanin (Sigma, M-0418), BCA-Copper (Sigma, B9643 and C2284), BSA (Sigma, P0914) C) Test for the Study of the Antioxidant Capacity by Chemiluminescence (Photochem Analytik Jena) Principle: […]

A short description of test [2]: Antioxidant capacity by chemiluminescence (Photochem Analytik Jena). Particulars: for μg of sample for 1 μg of Trolox: Trolox equivalent, lower = stronger antioxidant. The method, then:
This test is used to determine the antioxidant capacity of the molecules. It is a method that generates free radicals by a photochemical signal. The intensity of the oxidation is 1000 times greater than that obtained under normal conditions.
The detection is carried out by chemiluminescence. It enables the evaluation of hydrosoluble and liposoluble anti-oxidant molecules or extracts.
The results are expressed respectively in equivalent quantity of vitamin C or Trolox (6-hydroxy-2,5,7,8-tetramethylchroman-2-carboxylic acid). The sensitivity is of the order of a nanomole.
The antioxidant activity studied in this test represents the capacity to trap specifically superoxide anions by chemiluminescence.
The quantified results are expressed in Trolox equivalent (standard), i.e. in “μg of product for 1 μg of Trolox”. This signifies that a quantity×of sample is needed to obtain an activity equivalent to the activity detected for 1 μg of standard. It is an anti-oxidant power relative to a reference, which makes it possible to disregard the concentration tested.
The superoxide radical: 02^0− is generated by a photochemical reaction: L+hv (UV)+O2→L*O2→L^0++O2^0−
A part of the superoxide anions is quenched by the anti-oxidants. The remaining free radicals are quantified by chemiluminescence. L^0++O2^0−→N2+AP*^2−→AP^2−+hv (luminescence)

The nature of test [3]: Protection of linoleic acid following a UV stress (Fenton conditions, MDA-TBA assay). To be noted: UV + H2O2 + iron II. The arrangement: % Protection Linoleic acid under UV/Fenton: concentration or dose not given beside the values. The source says:
D) Test of Protection of Linoleic Acid Following a UV Stress. Target: Protection of Linoleic Acid Under Fenton Conditions, UV Irradiation Linoleic acid belongs to the family of polyunsaturated fatty acids (PUFA) (AGPI). Sensitive to oxidation, linoleic acid is a favoured target for oxygenated free radicals (OFR) in biological media. When biological membranes are exposed to an oxidative stress, the components the most affected are the phospholipids constituted of PUFA and cholesterol. Their degradation leads to lipidic peroxidation and generally to destructuring. Lipidic peroxidation is a self-catalysing process which generally involves OFR. Lipidic peroxidation is in part responsible for skin ageing. The method employed to evaluate lipid peroxidation is based on the coupling of thiobarbituric acid (TBA) and secondary degradation products leading to coloured compounds detectable by spectrofluorometry. The essential secondary compound of final degradation is malondialdehyde, MDA. MDA is a carcinogenic and mutagenic aldehyde, it acts on proteins and DNA. The sample to be tested is placed in contact with linoleic acid in a weight/weight ratio. The sample undergoes an MED (Minimal Erythemal Dose) irradiation under Fenton conditions, namely in the presence of H202 and iron II in a solar simulator. Following irradiation, the reaction mixture is taken up in methanol and derivatised at 90° C. with TBA. Chromogene, the MDA-TBA complex, representative of the equimolar production of MDA is assayed by fluorimetry (excitation at 525 nm, emission at 549 nm). The results are expressed in fluorescence units, as a function of a MDA-TBA control range then expressed as concentration of the MDA-TBA complex. Then, the percentage of the starting MDA/linoleic acid (LA) ratio is determined. Then the percentage of protection of linoleic acid is determined. The product assay is expressed as weight/weight ratio, in other words in weight percentage with respect to the total quantity of linoleic acid. The maximal MDA level is determined by the condition UV+H202+iron II (F). The percentage of protection of linoleic acid represents: the % ratio of MDA under maximal stress conditions untreated over the % of MDA under stress conditions treated by the product.

Test [4] concerns P. acnes IP53.117 ATCC6919. In words: Minimal inhibitory concentration (MIC), microdilution. Particulars: for MIC: Cutibacterium acnes, P. acnes IP53.117 ATCC6919. In kind it is cell-based, Propionibacterium acnes. How it is done: (§1) E) Determination of the Minimal Inhibitory Concentration (MIC): This test is used to determine the antibacterial activity of a compound. Tests are carried out with 4 bacterial strains using the principle of microdilution. The MIC are determined by micromethod in liquid medium. The successive dilutions according to the products tested in the culture broth (Trypcase soy) are carried out on 96 well microplates in a final volume of 0.1 ml. The wells are seeded with 0.01 ml of bacterial suspensions titrated at around 10^7 UFC/ml. The microplates are incubated under optimal growth conditions and the MIC is read visually.
For orientation: In broth dilution the organism is exposed to a series of concentrations in liquid medium.

In test [5] the test system is Staphylococcus aureus IP4.83 ATCC6538. The test is described as above. The test is classed as cell-based. The method, then: as §1
Test [6] relates to Staphylococcus epidermidis IP6821. The description is as above. The test is classed as cell-based. How it is done: as §1
Test [7] concerns Escherichia coli IP53126 ATCC8739. The description is as above. The test is classed as cell-based. The method, then:
as §1

Test [8] concerns the target T1, mushroom tyrosinase. As to the kind of experiment: Tyrosinase inhibition test (in vitro acellular depigmenting activity). The test is classed as biochemical. To be noted: polyphenol oxidase (PPO) function; reference molecules for the test.
[9] abbreviates: B16-F10, 50 μM, α-MSH stimulated, 72 hours, negative value = inhibition of melanin synthesis.

pIC50: −log10 of the molar value. In brackets after ≈: the same amount, converted by molar mass. Where two headings read alike, the source gives them in different places.

T1 sequence (C7FF04 1-392 limits assumed): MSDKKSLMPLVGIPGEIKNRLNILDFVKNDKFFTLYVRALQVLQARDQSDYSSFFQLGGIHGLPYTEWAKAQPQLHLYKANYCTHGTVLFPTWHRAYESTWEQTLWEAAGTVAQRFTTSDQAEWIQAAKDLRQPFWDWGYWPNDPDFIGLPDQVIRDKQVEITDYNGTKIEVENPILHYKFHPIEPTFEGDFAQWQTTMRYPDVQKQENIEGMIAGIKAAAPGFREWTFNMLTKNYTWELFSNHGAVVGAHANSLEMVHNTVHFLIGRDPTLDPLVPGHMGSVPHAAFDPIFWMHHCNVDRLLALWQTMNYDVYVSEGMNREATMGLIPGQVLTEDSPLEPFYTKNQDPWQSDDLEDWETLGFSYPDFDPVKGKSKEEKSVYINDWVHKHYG

Take `CCCCOc1cc(O)ccc1Sc1ccc(O)cc1O` [Example 5, 4-(2-butoxy-4-hydroxyphenylthio)benzene-1,3-diol]: on mushroom tyrosinase [1], the “Tyrosinase depigmenting activity result” value is “+ + +”. Moreover, the inhibition at 20 µM with B16-F10 cells (B16-F10, 72 h) stood at 27%. Besides, the “μg of sample for 1 μg of Trolox” value in test [2] is 2.8 μg of sample for 1 μg of Trolox. Also, the “% Protection Linoleic acid under UV/Fenton” value (“% Protection Linoleic acid” below) in test [3] turned out to be 89%. Besides, the results for the minimal inhibitory concentration (MIC) in [4], in test [5] and in test [6] were 3 µg/mL (≈ 9.79 µM), 6 µg/mL (≈ 19.6 µM) and 3 µg/mL (≈ 9.79 µM), respectively.

Turning to `CCCCCCCCOc1cc(O)ccc1Sc1ccc(O)cc1O` [Example 7, 4-(4-hydroxy-2-(octyloxy)phenylthio)benzene-1,3-diol], the “Tyrosinase depigmenting activity result” value at mushroom tyrosinase [1] is “+ + +”. Further, the inhibition at 10 µM in the test with B16-F10 cells (B16-F10, 72 h) is 50%. Besides, the “μg of sample for 1 μg of Trolox” value in test [2] is given as 3.4 μg of sample for 1 μg of Trolox. In addition, the “% Protection Linoleic acid” value in test [3] is listed as 92%. The “antibacterial activity against Propionibacterium acnes (in words)” value in test [4] is reported as “strong antibacterial activity”. The MIC – broadly, the lowest concentration found to suppress growth – in test [4] is 0.09 µg/mL (≈ 0.248 µM); in test [7] it was 390 µg/mL (≈ 1080 µM); in test [5], 0.78 µg/mL (≈ 2.15 µM); in [6] it was 0.39 µg/mL (≈ 1.08 µM).

Turning to `CCCCCCCCCCOc1cc(O)ccc1Sc1ccc(O)cc1O` [Example 12, 4-(2-(decyloxy)-4-hydroxyphenylthio)benzene-1,3-diol], in test [2], the “μg of sample for 1 μg of Trolox” value is given as 3.4 μg of sample for 1 μg of Trolox. For the same molecule, the “% Protection Linoleic acid” value in test [3] is recorded as 96%. Besides, the “antibacterial activity against Propionibacterium acnes (in words)” value in [4] was “strong antibacterial activity”. In addition, the MIC in test [4] was 0.09 µg/mL (≈ 0.23 µM); in [7], 780 µg/mL (≈ 2000 µM); in [5] it was 0.78 µg/mL (≈ 2 µM); in test [6] it was 0.39 µg/mL (≈ 0.999 µM).

As for `CCCCCCCCCCCCCCCCOc1cc(O)ccc1Sc1ccc(O)cc1O` [Example 13, 4-(2-(hexadecyloxy)-4-hydroxyphenylthio)benzene-1,3-diol], in [2], the “μg of sample for 1 μg of Trolox” value was 5.7 μg of sample for 1 μg of Trolox. In addition, the “% Protection Linoleic acid” value in test [3] stood at 95%. In addition, the MIC in [4] turned out to be 90 µg/mL (≈ 190 µM); in test [5], 190 µg/mL (≈ 400 µM); in test [6] it was 156 µg/mL (≈ 329 µM).

`CC(C)CC(=O)Oc1cc(O)ccc1Sc1ccc(O)cc1O` [Example 19, 2-(2,4-dihydroxyphenylthio)-5-hydroxyphenyl 3-methylbutanoate]: on mushroom tyrosinase [1], the “Tyrosinase depigmenting activity result” value is “+ + +”. Further, the inhibition at 50 µM in the test on B16-F10 cells (setting [9]) was 20%. The “μg of sample for 1 μg of Trolox” value in [2] was 2.8 μg of sample for 1 μg of Trolox. The “% Protection Linoleic acid” value in test [3] came out at 88%.

As for `CC(C)CC(=O)Oc1ccc(Sc2ccc(O)cc2O)c(O)c1` [Example 20, 4-(2,4-dihydroxyphenylthio)-3-hydroxyphenyl 3-methylbutanoate], the “Tyrosinase depigmenting activity result” value on mushroom tyrosinase [1] is “+ + +”. Also, the inhibition at 50 µM with B16-F10 cells (setting [9]) was 24%. In [2], the “μg of sample for 1 μg of Trolox” value was 25.6 μg of sample for 1 μg of Trolox. The “% Protection Linoleic acid” value in test [3] was 91%.

Regarding `CCCCCCCCNC(=O)Oc1cc(O)ccc1Sc1ccc(O)cc1O` [Example 24, 2-(2,4-dihydroxyphenylthio)-5-hydroxyphenyl octylcarbamate], the “Tyrosinase depigmenting activity result” value at mushroom tyrosinase [1] is reported as “+ + +”. The inhibition at 50 µM in the test with B16-F10 cells (B16-F10, 72 h) is 26%. Besides, the “μg of sample for 1 μg of Trolox” value in test [2] was 3.8 μg of sample for 1 μg of Trolox. The “% Protection Linoleic acid” value in test [3] is recorded as 97%.

Turning to `[O-][S+](c1ccc(O)cc1O)c1ccc(O)cc1O` [Example 25, 4,4′sulphinyldibenzene-1,3-diol], at mushroom tyrosinase [1], the pIC50 (in general, −log10 of the IC50, conventionally taken in molar units) is 4.92 and the “Tyrosinase depigmenting activity result” value is recorded as “+ + +”. The inhibition at 73 µM in the test on B16-F10 cells (B16-F10, 73 μM, α-MSH stimulated, 72 hours, negative value = inhibition) was determined as 50%. For the same molecule, in [2], the “μg of sample for 1 μg of Trolox” value is reported as 73 μg of sample for 1 μg of Trolox. Besides, in test [3], the “% Protection Linoleic acid” value was 79%.

Take `O=C1O[C@H]([C@@H](O)CO)C(O)=C1O` [Vitamin C, reference compound]: the “Activity (antioxidant, interpretation scale)” value in test [2] (reference products of the interpretation scale) is given as “Very good (0.1 to 3.0)”. Besides, at mushroom tyrosinase [8], the pIC50 was 4.40 to 4.70.

(Values after patent publication US8859819B2, “Sulphurated derivatives of resorcinol, preparation of same and cosmetic uses thereof” (Pierre Fabre Dermo-Cosmetique, priority 2009, dated 2014).)
